20 compounds from patent US20100137313A1 (ASTRAZENECA AB, priority 2008, published 2010) can be followed below.

The structures appear in SMILES notation.

Sequence of S. pneumoniae Topoisomerase IV ATPase (ParE) (Q59961 whole entry): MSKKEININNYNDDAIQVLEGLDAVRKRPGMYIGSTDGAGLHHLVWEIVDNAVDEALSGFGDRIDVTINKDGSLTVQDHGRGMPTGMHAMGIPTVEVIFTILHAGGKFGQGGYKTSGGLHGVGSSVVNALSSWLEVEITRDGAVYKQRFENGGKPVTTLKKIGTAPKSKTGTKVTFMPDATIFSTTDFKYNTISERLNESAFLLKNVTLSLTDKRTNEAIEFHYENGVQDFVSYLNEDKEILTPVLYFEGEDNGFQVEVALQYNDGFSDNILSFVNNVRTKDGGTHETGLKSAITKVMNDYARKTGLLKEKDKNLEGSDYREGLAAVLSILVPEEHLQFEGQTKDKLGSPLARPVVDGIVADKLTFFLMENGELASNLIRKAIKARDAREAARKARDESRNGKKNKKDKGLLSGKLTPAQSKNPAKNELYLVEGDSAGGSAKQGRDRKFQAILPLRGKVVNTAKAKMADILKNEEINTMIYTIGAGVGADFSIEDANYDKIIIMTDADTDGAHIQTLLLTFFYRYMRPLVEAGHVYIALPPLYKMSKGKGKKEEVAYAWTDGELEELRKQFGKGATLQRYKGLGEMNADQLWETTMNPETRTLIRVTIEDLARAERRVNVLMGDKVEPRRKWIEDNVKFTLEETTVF

The target of the first assay is S. pneumoniae Topoisomerase IV ATPase (ParE) (Streptococcus pneumoniae serotype 4, UniProt Q59961). The assay is described as follows: S. pneumoniae Topoisomerase IV ATPase inhibition. To be noted: values marked * are an average of two or more data points. In kind it is biochemical. The essentials:
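Phosphate-release ATPase assay: 1.25 nM ParE, 160 μM ATP, DNA-stimulated. Quench with malachite green/molybdate in 1 M HCl, read 650 nm; IC50 from 10-point dose series.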
In the case of `O=C(O)[C@@H]1C[C@H]1c1cccc(-c2cnc(Nc3ccc(F)c(Cl)c3)nc2-n2ccc(C(F)(F)F)n2)c1` [Example 575, (1R,2R)-2-(3-(2-(3-chloro-4-fluorophenvlamino)-4-(3-(trifluoromethyl)-1H-pyrazol-1-yl)pyrimidin-5-yl)phenyl)cyclopropanecarboxylic acid], the “% Inh (13 μM) of S. pneumoniae Topoisomerase IV ATPase” value came out at 100%. For `O=C(O)[C@H]1C[C@H]1c1cccc(-c2cnc(Nc3ccc(F)c(Cl)c3)nc2-n2ccc(C(F)(F)F)n2)c1` [Example 576, (1S,2R)-2-(3-(2-(3-chloro-4-fluorophenvlamino)-4-(3-(trifluoromethyl)-1H-pyrazol-1-yl)pyrimidin-5-yl)phenyl)cyclopropanecarboxylic acid], the “% Inh (13 μM) of S. pneumoniae Topoisomerase IV ATPase” value is recorded as 100%.

The same assay, now with this note: values marked * are an average of two or more data points, read-out: % Inh (13 μM) of S. pneumoniae Topoisomerase IV ATPase.
As to `O=C(O)/C=C/c1cccc(-c2cnc(Nc3ccc(F)c(Cl)c3)nc2-n2nc(C(F)F)cc2C(F)F)c1` [Example 564, (2E)-3-(3-{4-[3,5-bis(difluoromethyl)-1H-pyrazol-1-yl]-2-[(3-chloro-4-fluorophenyl)amino]pyrimidin-5-yl}phenyl)prop-2-enoic acid], the inhibition at 13 µM was found to be 92%. On the same count and under the same terms, for `O=C(O)/C=C/c1cccc(-c2cnc(Nc3ccc(F)c(Cl)c3)nc2-n2ccc(-c3ccsc3)n2)c1` [Example 565, (2E)-3-(3-{2-[(3-chloro-4-fluorophenyl)amino]-4-[3-(thiophen-3-yl)-1H-pyrazol-1-yl]pyrimidin-5-yl}phenyl)prop-2-enoic acid] the value was 100%; for `CC(=O)Nc1ccn(-c2nc(Nc3ccc(F)c(Cl)c3)ncc2-c2cccc(/C=C/C(=O)O)c2)n1` [Example 566, (2E)-3-(3-{4-[3-(acetylamino)-1H-pyrazol-1-yl]-2-[(3-chloro-4-fluorophenyl)amino]pyrimidin-5-yl}phenyl)prop-2-enoic acid], 52%.

As to `O=C(O)/C=C/c1cccc(-c2cnc(Nc3ccc(F)c(Cl)c3)nc2-n2cc(-c3ccccn3)cn2)c1` [Example 567, (2E)-3-(3-{2-[(3-chloro-4-fluorophenyl)amino]-4-[4-(pyridin-2-yl)-1H-pyrazol-1-yl]pyrimidin-5-yl}phenyl)prop-2-enoic acid], the inhibition at 13 µM came out at 100%. On to `O=C(O)/C=C/c1cccc(-c2cnc(Nc3ccc(F)c(Cl)c3)nc2-n2cc(-c3ccncn3)cn2)c1` [Example 568, (2E)-3-(3-{2-[(3-chloro-4-fluorophenyl)amino]-4-[4-(pyrimidin-4-yl)-1H-pyrazol-1-yl]pyrimidin-5-yl}phenyl)prop-2-enoic acid], for which the inhibition at 13 µM was 100%. Still for that read-out and setting: for `O=C(O)c1cccc(-c2cnc(Nc3ccc(F)c(Cl)c3)nc2-n2ccc(C(F)(F)F)n2)c1` [Example 570, 3-(2-(3-chloro-4-fluorophenylamino)-4-(3-(trifluoromethyl)-1H-pyrazol-1-yl)pyrimidin-5-yl)benzoic acid] the value was 91%; for `CC1(C)[C@@H](C(=O)O)[C@@H]1c1cccc(-c2cnc(Nc3ccc(F)cc3)nc2-n2ccc(C(F)(F)F)n2)c1` [Example 571, (1,3-trans)-3-(3-(2-(4-fluorophenylamino)-4-(3-(trifluoromethyl)-1H-pyrazol-1-yl)pyrimidin-5-yl)phenyl)-2,2-dimethylcyclopropanecarboxylic acid], 17%. The same measure, in the same setting: the result for `CC1(C)[C@@H](C(=O)O)[C@@H]1c1cccc(-c2cnc(Nc3ccc(F)c(Cl)c3)nc2-n2ccc(C(F)(F)F)n2)c1` [Example 572, (1,3-trans)-3-(3-(2-(3-chloro-4-fluorophenylamino)-4-(3-(trifluoromethyl)-1H-pyrazol-1-yl)pyrimidin-5-yl)phenyl)-2,2-dimethylcyclopropanecarboxylic acid] reads 100%; that for `O=C(O)[C@@H]1C[C@H]1c1cncc(-c2cnc(Nc3ccc(F)c(Cl)c3)nc2-n2ccc(C(F)(F)F)n2)c1` [Example 573, (1,2-trans)-2-(5-(2-(3-chloro-4-fluorophenvlamino)-4-(3-(trifluoromethyl)-1H-pyrazol-1-yl)pyrimidin-5-yl)pyridin-3-yl)cyclopropanecarboxylic acid], 100%; that for `COc1cc(Nc2ncc(-c3cnc(NCCS(C)(=O)=O)c(C(=O)O)c3)c(-n3ccc(C(F)(F)F)n3)n2)cc(OC)c1` [Example 585, 5-(2-(3,5-dimethoxyphenylamino)-4-(3-(trifluoromethyl)-1H-pyrazol-1-yl)pyrimidin-5-yl)-2-(2-(methylsulfonyl)ethylamino)nicotinic acid], 100%. As to `CNc1ncc(-c2cnc(Nc3cc(OC)cc(OC)c3)nc2-n2ccc(C(F)(F)F)n2)cc1C(=O)O` [Example 586, 5-(2-(3,5-dimethoxyphenylamino)-4-(3-(trifluoromethyl)-1H-pyrazol-1-yl)pyrimidin-5-yl)-2-(methylamino)nicotinic acid], the inhibition at 13 µM was determined as 100%. The same measure, in the same setting: for `COc1cc(Nc2ncc(-c3cnc(N(C)C)c(C(=O)O)c3)c(-n3ccc(C(F)(F)F)n3)n2)cc(OC)c1` [Example 587, 5-(2-(3,5-dimethoxyphenylamino)-4-(3-(trifluoromethyl)-1H-pyrazol-1-yl)pyrimidin-5-yl)-2-(dimethylamino)nicotinic acid] the value was 100%; for `COc1cc(Nc2ncc(-c3cnc(-n4cncn4)c(C(=O)O)c3)c(-n3ccc(C(F)(F)F)n3)n2)cc(OC)c1` [Example 588, 5-(2-(3,5-dimethoxyphenylamino)-4-(3-(trifluoromethyl)-1H-pyrazol-1-yl)pyrimidin-5-yl)-2-(1H-1,2,4-triazol-1-yl)nicotinic acid], 100%.

As to `COc1cc(Nc2ncc(-c3cnc(-n4cccn4)c(C(=O)O)c3)c(-n3ccc(C(F)(F)F)n3)n2)cc(OC)c1` [Example 589, 5-(2-(3,5-dimethoxyphenylamino)-4-(3-(trifluoromethyl)-1H-pyrazol-1-yl)pyrimidin-5-yl)-2-(1H-pyrazol-1-yl)nicotinic acid], the inhibition at 13 µM was 100%.

As for `COc1cc(Nc2ncc(-c3cnc(-n4ccnc4)c(C(=O)O)c3)c(-n3ccc(C(F)(F)F)n3)n2)cc(OC)c1` [Example 590, 5-(2-(3,5-dimethoxyphenylamino)-4-(3-(trifluoromethyl)-1H-pyrazol-1-yl)pyrimidin-5-yl)-2-(1H-imidazol-1-yl)nicotinic acid], the inhibition at 13 µM stood at 100%. Same read-out and setting: for `CNc1ncc(-c2cnc(Nc3cc(OC)cc(OC)c3)nc2-n2nc(C(F)(F)F)cc2C)cc1C(=O)O` [Example 591, 5-(2-(3,5-dimethoxyphenylamino)-4-(5-methyl-3-(trifluoromethyl)-1H-pyrazol-1-yl)pyrimidin-5-yl)-2-(methylamino)nicotinic acid] the value was 100%; for `COc1cc(Nc2ncc(-c3cc(C(=O)O)cn(C)c3=O)c(-n3ccc(C(F)(F)F)n3)n2)cc(OC)c1` [Example 592, 5-(2-(3,5-dimethoxyphenylamino)-4-(3-(trifluoromethyl)-1H-pyrazol-1-yl)pyrimidin-5-yl)-1-methyl-6-oxo-1,6-dihydropyridine-3-carboxylic acid], 100%; for `CN(CC(=O)O)c1cccc(-c2cnc(Nc3ccc(F)c(Cl)c3)nc2-n2ccc(C(F)(F)F)n2)c1` [Example 598, N-(3-{2-[(3-chloro-4-fluorophenyl)amino]-4-[3-(trifluoromethyl)-1H-pyrazol-1-yl]pyrimidin-5-yl}phenyl)-N-methylglycine], 82%.
